Patent US20220175754A1, “P97 INHIBITORS FOR TREATING CANCER AND NEURODEGENERATIVE DISORDERS” (Lundquist Institute for Biomedical Innovation at …, priority 2018, published 2022)
Like-named read-outs stand apart in the source and are kept apart here. Blank lines part the entries; values can stand above or below the compound they belong to.

Key:
P97 = P97 (Homo sapiens, UniProt P55072); experiment: P97 Biomolgreen ATPase assay, 200 μM ATP; format: biochemical
Text: The following Table IV provides relevant results. The compound number in Table IV correlates to the numbered compounds in Table III.

SKMel2 (NRASQ61R) = experiment: Anti-proliferative activity, SKMel2; format: cell-based; settings: Homo sapiens, SK-MEL-2, skin cancer, read-out: Anti-proliferative activity (μM) of NMS-873
Protocol: (§1) Cells were seeded on a 384-well solid white plate (5,000 cells/well). Cells were transfected with luciferase siRNA or p97 siRNA (10 nM) for 48 h or treated with compounds for the indicated amount of time. Caspase-3/7 Glo, caspase-6 Glo, caspase-8 Glo, or caspase-9 Glo (Promega) was added into each well and mixed by shaking at 500 rpm for 1 min. Luminescence signal was determined after incubation at room temperature for 1 h. Cellular viability was determined with Cell-Titer-Glo reagent (Promega). […] IC50 values were calculated from fitting the percentage of luminescence signal normalized to DMSO treated cells).

MDA-MB-231 = experiment: Anti-proliferative activity, MDA-MB-231; format: cell-based; settings: Homo sapiens, Breast, read-out: Anti-proliferative activity (μM) of NMS-873
Protocol: (§2) Cells were seeded on a 384-well solid white plate (5,000 cells/well). Cells were transfected with luciferase siRNA or p97 siRNA (10 nM) for 48 h or treated with compounds for the indicated amount of time. […] Cellular viability was determined with Cell-Titer-Glo reagent (Promega). […] IC50 values were calculated from fitting the percentage of luminescence signal normalized to DMSO treated cells).

SKMel5 (BRAFV600E) = experiment: Anti-proliferative activity, SKMel5; format: cell-based; settings: Homo sapiens, SK-MEL-5, skin cancer, read-out: Anti-proliferative activity (μM) of NMS-873
Protocol: as §1

PANC-1 = experiment: Anti-proliferative activity, PANC-1; format: cell-based; settings: Homo sapiens, Pancreatic cancers, read-out: Anti-proliferative activity (μM) of NMS-873
Protocol: as §1

CCRF-CEM = experiment: Anti-proliferative activity, CCRF-CEM; format: cell-based; settings: Homo sapiens, blood cancer, read-out: Anti-proliferative activity (μM) of NMS-873
SW620 = experiment: Anti-proliferative activity, SW620; format: cell-based; settings: Homo sapiens, SW-620, Colon, read-out: Anti-proliferative activity (μM) of NMS-873
RPMI8226 = experiment: Anti-proliferative activity, RPMI8226; format: cell-based; settings: Homo sapiens, RPMI-8226, Multiple Myeloma, read-out: Anti-proliferative activity (μM) of NMS-873
LoxIMVI (BRAFV600E) = experiment: Anti-proliferative activity, LoxIMVI; format: cell-based; settings: Homo sapiens, LOX IMVI, skin cancer, read-out: Anti-proliferative activity (μM) of NMS-873
Protocol: as §1

HCT15 = experiment: Anti-proliferative activity, HCT15; format: cell-based; settings: Homo sapiens, HCT-15, Colon, read-out: Anti-proliferative activity (μM) of NMS-873
Protocol: as §2

MCF-7 = experiment: Anti-proliferative activity, MCF-7; format: cell-based; settings: Homo sapiens, MCF7, Breast, read-out: Anti-proliferative activity (μM) of NMS-873
Protocol: as §2

HCT116 = experiment: Anti-proliferative activity, HCT116; format: cell-based; settings: Homo sapiens, HCT-116, Colon, read-out: Anti-proliferative activity (μM) of NMS-873
Protocol: as §2

WM3918 (BRAF/NRAS WT) = experiment: Anti-proliferative activity, WM3918; format: cell-based; settings: skin cancer, read-out: Anti-proliferative activity (μM) of NMS-873
Protocol: as §1

BxPC-3 = experiment: Anti-proliferative activity, BxPC-3; format: cell-based; settings: Homo sapiens, Pancreatic cancers, read-out: Anti-proliferative activity (μM) of NMS-873
Protocol: as §1

A549 = experiment: Anti-proliferative activity, A549; format: cell-based; settings: Homo sapiens, Lung Cancer, read-out: Anti-proliferative activity (μM) of NMS-873
Protocol: as §1

A375 (BRAFV600E) = experiment: Anti-proliferative activity, A375; format: cell-based; settings: Homo sapiens, A-375, skin cancer, read-out: Anti-proliferative activity (μM) of NMS-873
Molt4 = experiment: Anti-proliferative activity, Molt4; format: cell-based; settings: Homo sapiens, MOLT-4, blood cancer, read-out: Anti-proliferative activity (μM) of NMS-873
MDA-MB-468 = experiment: Anti-proliferative activity, MDA-MB-468; format: cell-based; settings: Homo sapiens, Breast, read-out: Anti-proliferative activity (μM) of NMS-873
Protocol: as §2

[1] = read-out: P97 Biomolgreen, IC50

P97, sequence (P55072 whole entry): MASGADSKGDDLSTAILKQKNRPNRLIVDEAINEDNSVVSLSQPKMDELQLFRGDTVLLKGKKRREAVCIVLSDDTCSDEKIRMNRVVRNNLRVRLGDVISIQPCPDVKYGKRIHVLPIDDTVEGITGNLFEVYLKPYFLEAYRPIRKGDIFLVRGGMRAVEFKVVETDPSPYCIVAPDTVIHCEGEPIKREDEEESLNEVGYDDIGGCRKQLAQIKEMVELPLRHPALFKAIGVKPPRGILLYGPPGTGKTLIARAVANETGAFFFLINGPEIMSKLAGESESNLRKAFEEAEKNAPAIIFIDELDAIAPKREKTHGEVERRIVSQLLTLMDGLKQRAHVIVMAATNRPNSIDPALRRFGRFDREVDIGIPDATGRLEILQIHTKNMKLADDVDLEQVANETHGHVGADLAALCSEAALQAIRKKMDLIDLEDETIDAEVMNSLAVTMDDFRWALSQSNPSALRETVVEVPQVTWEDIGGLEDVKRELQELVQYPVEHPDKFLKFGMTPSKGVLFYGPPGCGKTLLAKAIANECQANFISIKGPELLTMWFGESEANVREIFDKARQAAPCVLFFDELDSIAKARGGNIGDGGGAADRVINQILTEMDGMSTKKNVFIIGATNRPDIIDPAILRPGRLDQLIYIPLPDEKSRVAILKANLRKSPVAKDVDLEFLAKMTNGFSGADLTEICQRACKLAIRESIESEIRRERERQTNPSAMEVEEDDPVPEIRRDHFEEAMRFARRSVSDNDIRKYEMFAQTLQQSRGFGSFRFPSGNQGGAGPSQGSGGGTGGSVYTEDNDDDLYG

IC50 (P97; [1]): 110 nM
SMILES: Cc1cc(OCc2nnc(SC3C=CCCC3)n2-c2cccnc2)ccc1C#CCOC1CCCCO1 (stereo not shown) [Compound 57]

IC50 (P97): 30 nM
SMILES: Cc1cc(OCc2nnc(SC3CCCC3)n2-c2cccnc2)ccc1C#CCOC(=O)NCCOCCNC(=O)CC1C2CC3CC(C2)CC1C3 (stereo not shown) [Compound 111]

P97 Biomolgreen; 200 μM ATP; IC50 (μM) (P97): Not active
SMILES: CCC(=O)NCC#Cc1ccc(OCc2nnc(SC[C@@]3(C)CO3)n2-c2cccnc2)cc1C [Compound 130]

IC50 (P97): 67 nM
SMILES: [2H]C1([2H])C([2H])([2H])C([2H])([2H])C([2H])(Sc2nnc(COc3ccc(C#CCNC4CCN(C)CC4)c(C)c3)n2-c2cccnc2)C1([2H])[2H] [Compound 96]

IC50 (P97): 29 nM
SMILES: COC(C)NCC#Cc1ccc(OCc2nnc(SC3CCCC3)n2-c2cccnc2)cc1C (stereo not shown) [Compound 12]

IC50 (P97): 990 nM
SMILES: [2H]C1([2H])C([2H])([2H])C([2H])([2H])C([2H])(Sc2nnc(COc3ccc(C#CCO)c(C)c3)n2-c2cccnc2)C1([2H])[2H] [Compound 117]

IC50 (P97; [1]): 5300 nM
SMILES: C#Cc1ccc(OCc2nnc(CC3CC3)n2-c2cccnc2)cc1C [Compound 55]

IC50 (P97; [1]): 32 nM
SMILES: OCC#Cc1ccc(OCc2nnc(SC3C=CCCC3)n2-c2cccnc2)cc1 (stereo not shown) [Compound 91]

IC50 (P97): 26 nM
SMILES: Cc1cc(OCc2nnc(SC3C=CCCC3)n2-c2cccnc2)ccc1C#CCOC(=O)NCCN1CCN(C(C)C)CC1 (stereo not shown) [Compound 71]

IC50 (P97): 260 nM
SMILES: Cc1cc(OCc2nnc(SC3CCCC3)n2-c2cccnc2)ccc1C#CCNC(=O)OC(C)(C)C [Compound 49]

IC50 (SKMel2 (NRASQ61R)): 3.04 µM
IC50 (MDA-MB-231): 2.95 µM
IC50 (SKMel5 (BRAFV600E)): 1.95 µM
IC50 (PANC-1): 5 µM
IC50 (CCRF-CEM): 0.1 µM
IC50 (SW620): 2.6 µM
IC50 (RPMI8226): 0.08 µM
IC50 (HCT15): 2.1 µM
IC50 (MCF-7): 3.07 µM
IC50 (HCT116): 1.2 µM
IC50 (BxPC-3): 2.5 µM
IC50 (A549): 2.2 µM
IC50 (A375 (BRAFV600E)): 2.27 µM
IC50 (Molt4): 0.92 µM
IC50 (MDA-MB-468): 1.36 µM
SMILES: Cc1cc(OCc2nnc(SC3CCCC3)n2-c2cccnc2)ccc1-c1ccc(S(C)(=O)=O)cc1 [NMS-873]
IC50 (LoxIMVI (BRAFV600E)): 0.65 µM
IC50 (WM3918 (BRAF/NRAS WT)): 2.35 µM

IC50 (P97): > 6700 nM
SMILES: N#Cc1ccc(C#CCOCc2nnc(SC3CCCC3)n2-c2cccnc2)cc1 [Compound 56]

IC50 (P97): 60 nM
SMILES: Cc1cc(OCc2nnc(SC3CCCC3)n2-c2cccnc2)ccc1C#CCOC(=O)NCCNC(=O)CC1C2CC3CC(C2)CC1C3 (stereo not shown) [Compound 110]

IC50 (P97): 130 nM
SMILES: [2H]C1([2H])C([2H])([2H])C([2H])([2H])C([2H])(Sc2nnc(COc3ccc(C#CC(C)OC(=O)NCCN4CCN(C(C)C)CC4)c(C)c3)n2-c2cccnc2)C1([2H])[2H] (stereo not shown) [Compound 42]

IC50 (P97): 15 nM
SMILES: Cc1cc(OCc2nnc(SC3C=CCCC3)n2-c2cccnc2)ccc1C#CCOC(=O)N1CCN(C)CC1 (stereo not shown) [Compound 108]

IC50 (P97; [1]): 30 nM
SMILES: CN1CCC(NC(=O)OCC#Cc2ccc(OCc3nnc(SC4C=CCCC4)n3-c3cccnc3)cc2C#N)CC1 (stereo not shown) [Compound 121]

P97 Biomolgreen; 200 μM ATP; IC50 (μM) (P97): Not active
SMILES: CCC(=O)NCC#Cc1ccc(OCc2nnc(SCC3CO3)n2-c2cccnc2)cc1C (stereo not shown) [Compound 129]

IC50 (P97): 25 nM
SMILES: Cc1cc(OCc2nnc(SC3C=CCCC3)n2-c2cccnc2)ccc1C#CCOC(=O)NC1CCN(C)CC1 (stereo not shown) [Compound 75]
